How the values were obtained:
[1] = Determination of pKa of formulated lipids (TNS fluorescence assay); format: physicochemical; settings: lipids of Formula I, formulated in LNP cationic lipid/DSPC/cholesterol/PEG-lipid 50/10/38.5/1.5 mol % or cationic lipid alone
Procedure: As described elsewhere, the pKa of formulated cationic lipids is correlated with the effectiveness of LNPs for delivery of nucleic acids (see Jayaraman et al, Angewandte Chemie, International Edition (2012), 51(34), 8529-8533; Semple et al, Nature Biotechnology 28, 172-176 (2010)). A representative preferred range of pKa is ˜5 to ˜7. […] Lipid nanoparticles comprising of cationic lipid/DSPC/cholesterol/PEG-lipid (50/10/38.5/1.5 mol %) or a cationic lipid alone in PBS at a concentration of 0.4 mM total lipid are prepared using the in-line process as described in Example 1. TNS was prepared as a 100 μM stock solution in distilled water. Vesicles were diluted to 24 μM lipid in 2 mL of buffered solutions containing 10 mM HEPES, 10 mM MES, 10 mM ammonium acetate, 130 mM NaCl, where the pH ranged from 2.5 to 11. An aliquot of the TNS solution was added to give a final concentration of 1 μM and following vortex mixing fluorescence intensity was measured at room temperature in a SLM Aminco Series 2 Luminescence Spectrophotometer using excitation and emission wavelengths of 321 nm and 445 nm. A sigmoidal best fit analysis was applied to the fluorescence data and the pKa was measured as the pH giving rise to half-maximal fluorescence intensity.

[2] = tested on: Photinus pyralis (firefly) luciferase mRNA expression in spleen; experiment: Luciferase mRNA in vivo evaluation using LNP compositions, spleen; settings: LNP 47.5:10:40.7:1.8, 1 mg/kg, mice
Procedure: (§1) Luciferase mRNA in vivo evaluation studies were performed in 6-8 week old female C57BL/6 mice (Charles River) 8-10 week old CD-1 (Harlan) mice (Charles River) according to guidelines established by an institutional animal care committee (ACC) and the Canadian Council on Animal Care (CCAC). Varying doses of mRNA-lipid nanoparticle were systemically administered by tail vein injection and animals euthanized at a specific time point (e.g., 4 hours) post-administration. Liver and spleen were collected in pre-weighed tubes, weights determined, immediately snap frozen in liquid nitrogen and stored at −80° C. until processing for analysis.
(§2) The FLuc mRNA (L-6107) from Trilink Biotechnologies will express a luciferase protein, originally isolated from the firefly, Photinus pyralis. FLuc is commonly used in mammalian cell culture to measure both gene expression and cell viability. It emits bioluminescence in the presence of the substrate, luciferin. This capped and polyadenylated mRNA is fully substituted with 5-methylcytidine and pseudouridine.
(§3) The effect of the proportion of mRNA to total lipid was investigated for a particular standard set of lipid proportions across three representative cationic lipids. LNP's were formulated by an in-line mixing process as described in Example 1. The lipid proportions were held constant at 47.5:10:40.7:1.8 for the cationic lipid, DSPC, Cholesterol and PEG-lipid respectively. The mRNA to lipid ratios are described in terms of the N/P ratio where N represents the moles of cationic lipid and P represents the moles of phosphate present as part of the nucleic acid backbone. Ratios described in this way are independent of the size of the nucleic acid. The size and polydispersity index data were generated using Malvern Nanosizer ZS. The diameters given are intensity weighted means. Encapsulation was determined using a fluorescent intercalating dye based assay (Ribogreen).

[3] = Particle size and polydispersity index by light scattering (Malvern Zetasizer/Nanosizer ZS); format: physicochemical; settings: LNP 47.5:10:40.7:1.8
Procedure: Cationic lipid(s), DSPC, cholesterol and PEG-lipid were solubilized in ethanol at a desired molar ratio (e.g., 50:0 to 10:28.5 to 38.5:1.5 to 1.7 or 47.5:10:40.8:1.7). Lipid nanoparticles (LNP) were prepared at a total lipid to mRNA weight ratio of approximately 10:1 to 30:1. The mRNA was diluted to 0.2 mg/mL in 10 to 50 mM citrate buffer, pH 4. Syringe pumps were used to mix the lipid solution (i.e., LNP components solubilized in ethanol) with the mRNA aqueous solution at a ratio of about 1:5 to 1:3 (vol/vol) with total flow rates above 15 mL/min. The ethanol was then removed and the external buffer replaced with PBS by dialysis. Finally, the lipid nanoparticles were filtered through a 0.2 μm pore sterile filter. Lipid nanoparticle particle size was 55-95 nm diameter, and in some instances approximately 70-90 nm as determined by quasi-elastic light scattering using a Malvern Zetasizer Nano ZS (Malvern, UK).
(§4) LNP's were formulated by an in-line mixing process as described in Example 1. These formulations were prepared such that the mRNA to cationic lipid ratio was held constant (N/P=6.3). The size and polydispersity index data were generated using Malvern Nanosizer ZS. The diameters given are intensity weighted means. Encapsulation was determined using a fluorescent intercalating dye based assay (Ribogreen). […]
as §3

[4] = tested on: Photinus pyralis (firefly) luciferase mRNA expression in liver; experiment: Luciferase mRNA in vivo evaluation using LNP compositions, liver; settings: LNP 47.5:10:40.7:1.8, 1 mg/kg, mice
Procedure: as §1
For liver, approximately 50 mg was dissected for analyses in a 2 mL FastPrep tubes (MP Biomedicals, Solon Ohio). ¼″ ceramic sphere (MP Biomedicals) was added to each tube and 500 μL of Glo Lysis Buffer—GLB (Promega, Madison Wis.) equilibrated to room temperature was added to liver tissue. Liver tissues were homogenized with the FastPrep24 instrument (MP Biomedicals) at 2×6.0 m/s for 15 seconds. Homogenate was incubated at room temperature for 5 minutes prior to a 1:4 dilution in GLB and assessed using SteadyGlo Luciferase assay system (Promega). Specifically, 50 μL of diluted tissue homogenate was reacted with 50 μL of SteadyGlo substrate, shaken for 10 seconds followed by 5 minute incubation and then quantitated using a CentroXS^3 LB 960 luminometer (Berthold Technologies, Germany). The amount of protein assayed was determined by using the BCA protein assay kit (Pierce, Rockford Ill.). Relative luminescence units (RLU) were then normalized to total μg protein assayed. To convert RLU to ng luciferase a standard curve was generated with QuantiLum Recombinant Luciferase (Promega). For a representative formulation having a combination of two cationic lipids, a four-hour time point was chosen for an efficacy evaluation of the lipid formulation.
as §2
LNP's were formulated by an in-line mixing process as described in Example 1. […] The size and polydispersity index data were generated using Malvern Nanosizer ZS. The diameters given are intensity weighted means. Encapsulation was determined using a fluorescent intercalating dye based assay (Ribogreen).

[5] = Encapsulation by fluorescent intercalating dye based assay (Ribogreen); format: physicochemical
Procedure: as §4, §3

[6] = N/P 3:1, LNP cationic lipid/DSPC/Cholesterol/PEG-lipid 47.5:10:40.7:1.8

Row | SMILES | Spleen Luc Activity ([2]; N/P 3:1) [ng/g] | Spleen Luc Activity ([2]; N/P 6:1) [ng/g] | Spleen Luc Activity ([2]; N/P 12:1) [ng/g] | Spleen Luc Activity ([2]; N/P 22:1) [ng/g] | PDI ([3]; N/P 3:1) | Size ([3]; N/P 3:1) [nm] | PDI ([3]; N/P 6:1) | Size ([3]; N/P 6:1) [nm] | PDI ([3]; N/P 12:1) | Size ([3]; N/P 12:1) [nm] | PDI ([3]; N/P 22:1) | Size ([3]; N/P 22:1) [nm] | Liver Luc Activity ([4]; N/P 3:1) [ng/g] | Liver Luc Activity ([4]; N/P 6:1) [ng/g] | Liver Luc Activity ([4]; N/P 12:1) [ng/g] | Liver Luc Activity ([4]; N/P 22:1) [ng/g] | Encapsulation [5, 6] [%] | Encapsulation ([5]; N/P 6:1, LNP 47.5:10:40.7:1.8) [%] | Encapsulation ([5]; N/P 12:1, LNP 47.5:10:40.7:1.8) [%] | Encapsulation ([5]; N/P 22:1, LNP 47.5:10:40.7:1.8) [%] | also measured
1 | CCCCCCCCCCCCC(CCCCCCCCCC)C(=O)OCCCCCCN(CCCCCCOC(=O)C(CCCCCCCCCC)CCCCCCCCCC)CCN(C)C (stereo not shown) [Compound I-39] |  |  |  |  |  |  |  |  |  |  |  |  |  |  |  |  |  |  |  |  | pKa [1]: 5.82
2 | CCCCCCCCC(CCCCCC)C(=O)OCCCCCCN(CCCCCCOC(=O)C(CCCCCC)CCCCCCCC)CCN(C)C (stereo not shown) [Compound I-5] | 188 | 236 | 184 | 247 | 0.072 | 86 | 0.028 | 81 | 0.026 | 75 | 0.039 | 81 | 7689 | 9509 | 12826 | 14538 | 94 | 96 | 98 | 99 | 
3 | CCCCCCCCC(=O)N(CCCN(C)C)C(CCCCCCCCC(=O)OCC(CCCC)CCCCCC)CCCCCCCCC(=O)OCC(CCCC)CCCCCC (stereo not shown) [II-9] | 831 | 642 | 514 | 439 | 0.054 | 94 | 0.033 | 88 | 0.014 | 84 | 0.017 | 84 | 6727 | 12209 | 18330 | 12634 | 92 | 95 | 98 | 98 | 
4 | CCCCCCC(CCCC)C(=O)OCCCCCCCCCN(CCCO)CCCCCCCCCOC(=O)C(CCCC)CCCCCC (stereo not shown) [III-45] | 410 | 356 | 243 | 353 | 0.089 | 87 | 0.068 | 74 | 0.074 | 65 | 0.083 | 57 | 13308 | 15395 | 16596 | 16005 | 75 | 86 | 91 | 94 | 
